Patent US10221197B2, “Phosphatidylinositol 3-kinase inhibitors” (Gilead Sciences, Inc., priority 2014, dated 2019)

Tests used:
Type in all cases: biochemical
PI3Kβ = PI3Kβ (Homo sapiens (Human), UniProt P42338); test: TR-FRET enzymatic assay of PI3K isoforms (PI3Kβ); settings: TR-FRET, 2×Km ATP, 2 μM PIP2, incubated for 30 minutes at 25° C.; read-out: β IC50
Procedure: (§1) The compounds of formula (I) were characterized for their enzymatic activity against the PI3K isoforms. Certain compounds of the present application, including certain compounds of formula (II) and (III) were also characterized for their enzymatic activity against PI3K isoforms. The activities were measured using a time-resolved fluorescence resonance energy transfer (TR-FRET) assay.

PI3Kδ = PI3Kδ (Homo sapiens (Human), UniProt O00329); test: TR-FRET enzymatic assay of PI3K isoforms (PI3Kδ); settings: 2×Km ATP, 2 μM PIP2, incubated for 30 minutes at 25° C., read-out: δ IC50
Chain of PI3Kδ (O00329 whole entry, canonical isoform): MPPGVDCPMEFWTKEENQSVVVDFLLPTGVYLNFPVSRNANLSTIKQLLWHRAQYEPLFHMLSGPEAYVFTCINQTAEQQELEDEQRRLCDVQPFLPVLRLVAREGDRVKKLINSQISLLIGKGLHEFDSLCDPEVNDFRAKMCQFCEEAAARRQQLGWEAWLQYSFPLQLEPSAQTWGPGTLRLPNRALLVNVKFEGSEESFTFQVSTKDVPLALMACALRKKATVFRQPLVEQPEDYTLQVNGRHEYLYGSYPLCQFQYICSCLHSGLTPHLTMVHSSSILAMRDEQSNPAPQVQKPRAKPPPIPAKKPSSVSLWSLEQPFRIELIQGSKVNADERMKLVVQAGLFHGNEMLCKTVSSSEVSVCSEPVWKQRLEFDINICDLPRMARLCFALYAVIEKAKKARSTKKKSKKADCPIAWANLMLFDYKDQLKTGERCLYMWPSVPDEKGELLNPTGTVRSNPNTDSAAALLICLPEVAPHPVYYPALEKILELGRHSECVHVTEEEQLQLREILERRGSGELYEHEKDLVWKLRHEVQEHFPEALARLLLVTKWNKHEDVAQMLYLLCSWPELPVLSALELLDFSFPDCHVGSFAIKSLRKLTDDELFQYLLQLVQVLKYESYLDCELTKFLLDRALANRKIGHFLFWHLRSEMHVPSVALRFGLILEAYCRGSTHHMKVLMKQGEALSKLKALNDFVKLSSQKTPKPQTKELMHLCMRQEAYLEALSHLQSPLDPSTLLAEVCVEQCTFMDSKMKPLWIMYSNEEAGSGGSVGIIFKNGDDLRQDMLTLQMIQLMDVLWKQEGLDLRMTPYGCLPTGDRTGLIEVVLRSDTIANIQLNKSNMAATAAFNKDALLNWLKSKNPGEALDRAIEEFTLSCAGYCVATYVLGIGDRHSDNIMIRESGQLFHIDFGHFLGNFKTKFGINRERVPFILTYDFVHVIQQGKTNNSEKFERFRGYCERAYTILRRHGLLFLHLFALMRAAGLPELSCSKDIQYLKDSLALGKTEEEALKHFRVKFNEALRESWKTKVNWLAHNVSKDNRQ
Chain of PI3Kδ (P27986 whole entry partner, canonical isoform): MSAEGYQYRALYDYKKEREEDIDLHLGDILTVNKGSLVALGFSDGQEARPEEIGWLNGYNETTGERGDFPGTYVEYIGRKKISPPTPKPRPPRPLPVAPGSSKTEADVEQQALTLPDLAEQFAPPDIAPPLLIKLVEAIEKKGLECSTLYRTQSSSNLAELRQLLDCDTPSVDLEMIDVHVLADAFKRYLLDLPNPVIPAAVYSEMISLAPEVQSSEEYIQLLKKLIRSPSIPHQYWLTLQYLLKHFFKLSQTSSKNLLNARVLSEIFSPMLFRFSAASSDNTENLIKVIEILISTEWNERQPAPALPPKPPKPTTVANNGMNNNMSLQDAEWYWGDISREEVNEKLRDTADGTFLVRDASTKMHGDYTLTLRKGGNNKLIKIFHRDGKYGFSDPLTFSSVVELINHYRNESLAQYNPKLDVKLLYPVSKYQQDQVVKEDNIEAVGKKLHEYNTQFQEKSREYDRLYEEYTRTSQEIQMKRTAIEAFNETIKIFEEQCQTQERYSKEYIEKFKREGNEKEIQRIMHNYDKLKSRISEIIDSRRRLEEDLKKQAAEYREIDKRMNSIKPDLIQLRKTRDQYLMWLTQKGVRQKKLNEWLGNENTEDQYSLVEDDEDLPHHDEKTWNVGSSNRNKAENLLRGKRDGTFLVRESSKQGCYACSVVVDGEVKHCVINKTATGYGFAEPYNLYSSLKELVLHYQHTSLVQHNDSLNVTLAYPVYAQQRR
Procedure: as §1

PI3Kγ = PI3Kγ (Homo sapiens (Human), UniProt P48736); test: TR-FRET enzymatic assay of PI3K isoforms (PI3Kγ); settings: TR-FRET, 2×Km ATP, 2 μM PIP2, PI3Kγ at 2 nM, incubated for 30 minutes at 25° C.; read-out: γ IC50
Chain of PI3Kγ (P48736 whole entry, canonical isoform): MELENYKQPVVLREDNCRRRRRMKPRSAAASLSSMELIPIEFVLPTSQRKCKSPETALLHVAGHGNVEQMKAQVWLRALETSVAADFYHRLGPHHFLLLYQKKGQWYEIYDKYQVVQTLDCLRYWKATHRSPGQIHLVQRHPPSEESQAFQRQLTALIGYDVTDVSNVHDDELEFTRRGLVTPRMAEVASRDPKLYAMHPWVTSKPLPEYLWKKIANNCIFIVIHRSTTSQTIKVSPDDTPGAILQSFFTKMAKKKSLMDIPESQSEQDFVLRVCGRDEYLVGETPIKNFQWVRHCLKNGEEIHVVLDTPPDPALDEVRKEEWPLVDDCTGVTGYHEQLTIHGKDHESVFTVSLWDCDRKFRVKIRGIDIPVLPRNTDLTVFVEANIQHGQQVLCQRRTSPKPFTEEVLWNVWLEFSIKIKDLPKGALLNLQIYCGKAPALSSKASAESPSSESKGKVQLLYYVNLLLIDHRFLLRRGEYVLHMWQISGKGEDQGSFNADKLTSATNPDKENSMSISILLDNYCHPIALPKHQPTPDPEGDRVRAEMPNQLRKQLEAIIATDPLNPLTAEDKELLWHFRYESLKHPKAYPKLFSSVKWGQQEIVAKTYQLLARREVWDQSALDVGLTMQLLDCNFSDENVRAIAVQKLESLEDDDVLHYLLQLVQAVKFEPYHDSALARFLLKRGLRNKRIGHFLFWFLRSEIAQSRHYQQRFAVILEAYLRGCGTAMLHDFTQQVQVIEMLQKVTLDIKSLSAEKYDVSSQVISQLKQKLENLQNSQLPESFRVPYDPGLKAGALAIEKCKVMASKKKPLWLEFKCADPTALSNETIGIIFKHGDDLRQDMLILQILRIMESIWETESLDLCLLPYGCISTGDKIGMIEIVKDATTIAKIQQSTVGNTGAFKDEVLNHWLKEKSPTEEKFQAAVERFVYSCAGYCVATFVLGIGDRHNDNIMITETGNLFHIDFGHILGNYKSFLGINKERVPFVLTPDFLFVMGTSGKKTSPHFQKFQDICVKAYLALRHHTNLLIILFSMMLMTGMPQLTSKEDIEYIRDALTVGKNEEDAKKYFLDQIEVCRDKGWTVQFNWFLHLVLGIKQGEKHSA
Chain of PI3Kγ (Q8WYR1 whole entry partner, canonical isoform): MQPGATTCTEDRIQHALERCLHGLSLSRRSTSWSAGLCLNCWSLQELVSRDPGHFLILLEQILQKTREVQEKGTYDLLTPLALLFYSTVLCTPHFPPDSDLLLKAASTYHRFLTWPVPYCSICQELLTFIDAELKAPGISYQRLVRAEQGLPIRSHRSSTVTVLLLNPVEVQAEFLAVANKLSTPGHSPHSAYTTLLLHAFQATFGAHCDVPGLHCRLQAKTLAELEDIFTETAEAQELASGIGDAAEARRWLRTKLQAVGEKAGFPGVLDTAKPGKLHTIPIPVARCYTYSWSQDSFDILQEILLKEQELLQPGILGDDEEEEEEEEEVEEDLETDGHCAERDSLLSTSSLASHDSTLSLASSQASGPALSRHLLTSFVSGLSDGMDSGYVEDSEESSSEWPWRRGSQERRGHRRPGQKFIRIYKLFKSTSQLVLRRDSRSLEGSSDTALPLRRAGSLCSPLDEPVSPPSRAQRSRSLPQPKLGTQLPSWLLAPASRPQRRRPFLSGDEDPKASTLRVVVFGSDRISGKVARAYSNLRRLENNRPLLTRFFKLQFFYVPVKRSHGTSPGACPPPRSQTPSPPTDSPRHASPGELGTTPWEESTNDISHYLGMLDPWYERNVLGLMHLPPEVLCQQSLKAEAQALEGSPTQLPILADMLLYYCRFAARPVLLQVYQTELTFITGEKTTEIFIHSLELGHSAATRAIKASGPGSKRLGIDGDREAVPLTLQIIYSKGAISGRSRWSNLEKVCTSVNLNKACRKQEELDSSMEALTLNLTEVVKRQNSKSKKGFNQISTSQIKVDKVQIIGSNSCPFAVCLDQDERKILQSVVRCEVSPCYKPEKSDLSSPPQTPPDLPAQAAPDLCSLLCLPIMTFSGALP
Procedure: as §1

Chain of PI3Kβ (P42338 whole entry, canonical isoform): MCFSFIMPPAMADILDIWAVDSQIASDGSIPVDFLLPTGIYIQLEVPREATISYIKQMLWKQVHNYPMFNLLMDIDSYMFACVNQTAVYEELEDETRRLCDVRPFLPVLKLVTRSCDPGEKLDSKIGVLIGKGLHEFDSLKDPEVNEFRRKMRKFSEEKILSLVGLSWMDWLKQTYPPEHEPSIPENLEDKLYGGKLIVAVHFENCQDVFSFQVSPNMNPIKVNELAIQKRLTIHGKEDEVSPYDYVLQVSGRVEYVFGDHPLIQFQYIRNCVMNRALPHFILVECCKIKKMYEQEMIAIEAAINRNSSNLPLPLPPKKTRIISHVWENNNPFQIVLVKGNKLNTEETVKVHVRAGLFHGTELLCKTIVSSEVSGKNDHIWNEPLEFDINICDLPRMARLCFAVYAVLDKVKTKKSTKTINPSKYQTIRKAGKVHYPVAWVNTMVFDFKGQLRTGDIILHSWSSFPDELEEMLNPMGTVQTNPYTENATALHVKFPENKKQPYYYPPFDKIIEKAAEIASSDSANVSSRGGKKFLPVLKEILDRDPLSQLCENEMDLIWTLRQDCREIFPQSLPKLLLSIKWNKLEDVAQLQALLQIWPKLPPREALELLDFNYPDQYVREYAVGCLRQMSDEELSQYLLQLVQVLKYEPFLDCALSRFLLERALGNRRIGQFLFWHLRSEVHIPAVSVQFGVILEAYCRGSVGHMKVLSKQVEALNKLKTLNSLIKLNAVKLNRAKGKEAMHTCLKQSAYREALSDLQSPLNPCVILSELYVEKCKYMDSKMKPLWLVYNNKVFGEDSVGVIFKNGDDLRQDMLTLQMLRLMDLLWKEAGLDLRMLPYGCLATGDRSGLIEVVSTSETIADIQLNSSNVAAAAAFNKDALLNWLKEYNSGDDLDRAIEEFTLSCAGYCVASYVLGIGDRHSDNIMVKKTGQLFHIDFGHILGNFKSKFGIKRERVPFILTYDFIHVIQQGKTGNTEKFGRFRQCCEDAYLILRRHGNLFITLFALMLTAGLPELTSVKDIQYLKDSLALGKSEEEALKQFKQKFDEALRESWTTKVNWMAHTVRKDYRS
Chain of PI3Kβ (P27986 whole entry partner, canonical isoform): as the sequence (P27986 whole entry partner, canonical isoform) above

Compound	IC50 (PI3Kβ) [nM]	IC50 (PI3Kδ) [nM]	IC50 (PI3Kγ) [nM]
N#Cc1c(N)nc(N)nc1N[C@H](c1nc2c(F)ccc(Cl)c2c(=O)n1-c1cccc(C(N)=O)c1)C1CC1 [Compound 15, (S)-3-(5-chloro-2-(cyclopropyl((2,6-diamino-5-cyanopyrimidin-4-yl)amino)methyl)-8-fluoro-4-oxoquinazolin-3(4H)-yl)benzamide]	10	1	330
NC(=O)c1cccc(-n2c([C@@H](Nc3nc(N)nc(N)c3Cl)C3CC3)nc3c(F)ccc(Cl)c3c2=O)c1 [Compound 16, (S)-3-(5-chloro-2-(cyclopropyl((2,6-diamino-5-chloropyrimidin-4-yl)amino)methyl)-8-fluoro-4-oxoquinazolin-3(4H)-yl)benzamide]	17	2	3200
CC[C@H](Nc1nc(N)nc(N)c1C#N)c1nc2c(Cl)ccc(Cl)c2c(=O)n1-c1cccc(C(N)=O)c1 [Compound 18, (S)-3-(5,8-dichloro-2-(1-((2,6-diamino-5-cyanopyrimidin-4-yl)amino)propyl)-4-oxoquinazolin-3(4H)-yl)benzamide]	8	0.5	1200
CC[C@H](Nc1nc(N)nc(N)c1Cl)c1nc2c(Cl)ccc(Cl)c2c(=O)n1-c1cccc(C(N)=O)c1 [Compound 19, (S)-3-(5,8-dichloro-2-(1-((2,6-diamino-5-chloropyrimidin-4-yl)amino)propyl)-4-oxoquinazolin-3(4H)-yl)benzamide]	28	3	> 10000
CCC[C@H](Nc1nc(N)nc(N)c1Cl)c1nc2c(Cl)ccc(Cl)c2c(=O)n1-c1cccc(C(N)=O)c1 [Compound 21, (S)-3-(5,8-dichloro-2-(1-((2,6-diamino-5-chloropyrimidin-4-yl)amino)butyl)-4-oxoquinazolin-3(4H)-yl)benzamide]	196	19	> 10000
CCC[C@H](Nc1nc(N)nc(N)c1C#N)c1nc2cccc(Cl)c2c(=O)n1-c1cccc(C(N)=O)c1 [Compound 22, (S)-3-(5-chloro-2-(1-((2,6-diamino-5-cyanopyrimidin-4-yl)amino)butyl)-4-oxoquinazolin-3(4H)-yl)benzamide]	7	0.7	300
CCC[C@H](Nc1nc(N)nc(N)c1Cl)c1nc2cccc(Cl)c2c(=O)n1-c1cccc(C(N)=O)c1 [Compound 23, (S)-3-(5-chloro-2-(1-((2,6-diamino-5-chloropyrimidin-4-yl)amino)butyl)-4-oxoquinazolin-3(4H)-yl)benzamide]	12	2	3900
C[C@H](Nc1nc(N)nc(C(F)F)c1C#N)c1nc2c(F)ccc(Cl)c2c(=O)n1-c1cccc(C(N)=O)c1 [Compound 24, (S)-3-(2-(1-((2-amino-5-cyano-6-(difluoromethyl)pyrimidin-4-yl)amino)ethyl)-5-chloro-8-fluoro-4-oxoquinazolin-3(4H)-yl)benzamide]	25	1	660
C[C@H](Nc1nc(N)nc(C(F)F)c1C#N)c1nc2cccc(Cl)c2c(=O)n1-c1cccc(C(N)=O)c1 [Compound 25, (S)-3-(2-(1-((2-amino-5-cyano-6-(difluoromethyl)pyrimidin-4-yl)amino)ethyl)-5-chloro-4-oxoquinazolin-3(4H)-yl)benzamide]	24	1	700
C[C@H](Nc1nc(N)nc(C(F)F)c1C#N)c1nc2c(Cl)cc(F)cc2c(=O)n1-c1cccc(C(N)=O)c1 [Compound 26, (S)-3-(2-(1-((2-amino-5-cyano-6-(difluoromethyl)pyrimidin-4-yl)amino)ethyl)-8-chloro-6-fluoro-4-oxoquinazolin-3(4H)-yl)benzamide]	313	12	7200

The remaining lines, values ahead:

IC50 (PI3Kβ) [nM]	IC50 (PI3Kδ) [nM]	IC50 (PI3Kγ) [nM]	Compound
267	46	> 10000	NC(=O)c1cccc(-n2c([C@@H](Nc3nc(N)nc(N)c3Cl)C3CC3)nc3c(Cl)cc(F)cc3c2=O)c1 [Compound 28, (S)-3-(8-chloro-2-(cyclopropyl((2,6-diamino-5-chloropyrimidin-4-yl)amino)methyl)-6-fluoro-4-oxoquinazolin-3(4H)-yl)benzamide]
252	22	> 10000	C[C@H](Nc1nc(N)nc(N)c1Cl)c1nc2c(Cl)cc(F)cc2c(=O)n1-c1cccc(C(N)=O)c1 [Compound 30, (S)-3-(8-chloro-2-(1-((2,6-diamino-5-chloropyrimidin-4-yl)amino)ethyl)-6-fluoro-4-oxoquinazolin-3(4H)-yl)benzamide]
21	2	1100	C[C@H](Nc1nc(N)nc(N)c1C#N)c1nc2c(C#N)cc(F)cc2c(=O)n1-c1cccc(C(N)=O)c1 [Compound 31, (S)-3-(8-cyano-2-(1-((2,6-diamino-5-cyanopyrimidin-4-yl)amino)ethyl)-6-fluoro-4-oxoquinazolin-3(4H)-yl)benzamide]
25	4	1800	N#Cc1c(N)nc(N)nc1N[C@H](c1nc2c(C#N)cc(F)cc2c(=O)n1-c1cccc(C(N)=O)c1)C1CC1 [Compound 32, (S)-3-(8-cyano-2-(cyclopropyl((2,6-diamino-5-cyanopyrimidin-4-yl)amino)methyl)-6-fluoro-4-oxoquinazolin-3(4H)-yl)benzamide]
4	0.8	380	CC[C@H](Nc1nc(N)nc(N)c1C#N)c1nc2cccc(C(F)F)c2c(=O)n1-c1cccc(C(N)=O)c1 [Compound 33, (S)-3-(2-(1-((2,6-diamino-5-cyanopyrimidin-4-yl)amino)propyl)-5-(difluoromethyl)-4-oxoquinazolin-3(4H)-yl)benzamide]
22	3	5000	CC[C@H](Nc1nc(N)nc(N)c1Cl)c1nc2cccc(C(F)F)c2c(=O)n1-c1cccc(C(N)=O)c1 [Compound 34, (S)-3-(2-(1-((2,6-diamino-5-chloropyrimidin-4-yl)amino)propyl)-5-(difluoromethyl)-4-oxoquinazolin-3(4H)-yl)benzamide]
5	1	200	N#Cc1c(N)nc(N)nc1N[C@H](c1nc2cccc(C(F)F)c2c(=O)n1-c1cccc(C(N)=O)c1)C1CC1 [Compound 35, (S)-3-(2-(cyclopropyl((2,6-diamino-5-cyanopyrimidin-4-yl)amino)methyl)-5-(difluoromethyl)-4-oxoquinazolin-3(4H)-yl)benzamide]
299	10	> 10000	C[C@H](Nc1nc(N)nc(N)c1Cl)c1nc2c(C#N)cccc2c(=O)n1-c1cccc(C(N)=O)c1 [Compound 36, (S)-3-(8-cyano-2-(1-((2,6-diamino-5-chloropyrimidin-4-yl)amino)ethyl)-4-oxoquinazolin-3(4H)-yl)benzamide]
243	7	> 10000	C[C@H](Nc1ncnc(N)c1C#Cc1cnccn1)c1nc2cccc(Cl)c2c(=O)n1-c1cccc(C(N)=O)c1 [Compound 37, (S)-3-(2-(1-((6-amino-5-(pyrazin-2-ylethynyl)pyrimidin-4-yl)amino)ethyl)-5-chloro-4-oxoquinazolin-3(4H)-yl)benzamide]
52	1	1500	C[C@H](Nc1ncnc(N)c1C#Cc1ccccn1)c1nc2cccc(Cl)c2c(=O)n1-c1cccc(C(N)=O)c1 [Compound 38, (S)-3-(2-(1-((6-amino-5-(pyridin-2-ylethynyl)pyrimidin-4-yl)amino)ethyl)-5-chloro-4-oxoquinazolin-3(4H)-yl)benzamide]
18	13	> 10000	CCNC(=O)Nc1cccc(-n2c([C@@H](Nc3ncnc(N)c3[N+](=O)[O-])[C@@H](C)CC)nc3cccc(Cl)c3c2=O)c1 [Compound 43, 1-(3-(2-((1S,2S)-1-((6-amino-5-nitropyrimidin-4-yl)amino)-2-methylbutyl)-5-chloro-4-oxoquinazolin-3(4H)-yl)phenyl)-3-ethylurea]
6	2	1800	CCNC(=O)Nc1cccc(-n2c([C@H](C)Nc3ncnc(N)c3C#N)nc3cccc(Br)c3c2=O)c1 [Compound 45, (S)-1-(3-(2-(1-((6-amino-5-cyanopyrimidin-4-yl)amino)ethyl)-5-bromo-4-oxoquinazolin-3(4H)-yl)phenyl)-3-ethylurea]
35	17	> 10000	C=CCc1cccc2nc([C@H](C)Nc3ncnc(N)c3C#N)n(-c3cccc(NC(=O)NCC)c3)c(=O)c12 [Compound 46, (S)-1-(3-(5-allyl-2-(1-((6-amino-5-cyanopyrimidin-4-yl)amino)ethyl)-4-oxoquinazolin-3(4H)-yl)phenyl)-3-ethylurea]
36	26	> 10000	CCNC(=O)Nc1cccc(-n2c([C@H](C)Nc3ncnc(N)c3C#N)nc3cccc(F)c3c2=O)c1 [Compound 47, (S)-1-(3-(2-(1-((6-amino-5-cyanopyrimidin-4-yl)amino)ethyl)-5-fluoro-4-oxoquinazolin-3(4H)-yl)phenyl)-3-ethylurea]
7	3	> 10000	CCNC(=O)Nc1cccc(-n2c([C@H](C)Nc3ncnc(N)c3C#N)nc3c(Cl)ccc(Cl)c3c2=O)c1 [Compound 48, (S)-1-(3-(2-(1-((6-amino-5-cyanopyrimidin-4-yl)amino)ethyl)-5,8-dichloro-4-oxoquinazolin-3(4H)-yl)phenyl)-3-ethylurea]
